To fix the notation:
B1: Betaferon (protein, UniProt P01574 22-187, looked up, variant C17S)
Interferon beta: MSYNLLGFLQRSSNFQSQKLLWQLNGRLEYCLKDRMNFDIPEEIKQLQQFQKEDAALTIYEMLQNIFAIFRQDSSSTGWNETIVENLLANVYHQINHLKTVLEEKLEKEDFTRGKLMSSLHLKRYYGRILHYLKAKEYSHCAWTIVRVEILRNFYFINRLTGYLRN
modifications: lacks N-terminal Met1
B2: Imukin (protein, UniProt P01579 24-161, looked up)
Interferon gamma: QDPYVKEAENLKKYFNAGHSDVADNGTLFLGILKNWKEESDRKIMQSQIVSFYFKLFKNFKDDQSIQKSVETIKEDMNVKFFNSNKKKRDDFEKLTNYSVTDLNVQRKAIHELIQVMAELSPAAKTGKRKRSQMLFRG

Converted amounts (≈) assume the structure as drawn. “And” between values parts separate entries of the source, which are not always exact repeats. Identical values can stand only once. “Also recorded” adds a separate entry of the source. Counter-ions that a name gives are not always drawn.

We go through 16 molecules from PMC7112612 (The Journal of Infection, 2013).

System in the first data set: not listed separately
Nature of the data set: in vitro. The following applies: African green monkey.
`COc1c(C)c2c(c(O)c1C/C=C(\C)CCC(=O)O)C(=O)OC2` [Mycophenolic acid]: the CC50 was over 32 µg/mL.
On the same count and under the same terms, for `NC(=O)c1ncn([C@@H]2O[C@H](CO)[C@@H](O)[C@H]2O)n1` [Ribavirin] the value was over 1600 µg/mL.

The subject of the next data set is MDCK cells.
Test: not given
The following applies: dog.
In the case of `CC[C@H]1CN2CCc3cc(OC)c(OC)cc3[C@@H]2C[C@@H]1C[C@H]1NCCc2cc(OC)c(OC)cc21` [Emetine], the TC50 was found to be 17.00 µM.
Same read-out and setting: as for `C[C@]12CC[C@@H]3c4ccc(O)cc4CC[C@H]3[C@@H]1CC[C@@H]2O` [Estradiol], the figure is 75.00 µM.
The same measure, in the same setting: as for `O=C(O)c1ccccc1Nc1cccc(C(F)(F)F)c1` [Flufenamic acid], the figure is 79.16 µM; as for `Cc1ccc(Cl)c(Nc2ccccc2C(=O)O)c1Cl` [Meclofenamate sodium], 100.00 µM.
Same read-out and setting: as for `Cc1cccc(Nc2ccccc2C(=O)O)c1C` [Mefenamic acid], the figure is 200.00 µM; as for `Sc1ncnc2nc[nH]c12` [Mercaptopurine], 100.00 µM; as for `COc1c(C)c2c(c(O)c1C/C=C(\C)CCC(=O)O)C(=O)OC2` [Mycophenolic acid], 170.00 µM.
`CCc1nc(N)nc(N)c1-c1ccc(Cl)cc1` [Pyrimethamine]: the TC50 came to 5.40 µM.
Same read-out and setting: for `NC(=O)c1ncn([C@@H]2O[C@H](CO)[C@@H](O)[C@H]2O)n1` [Ribavirin] the value was 168.00 µM; for `Cc1c(Cl)cccc1Nc1ccccc1C(=O)O` [Tolfenamic acid], 64.00 µM.

The test system of a further data set is MERS-CoV. The data set can be described thus: microbe, parasite or virus in culture. It is filed as cell-based.
Conditions: not given
`COc1c(C)c2c(c(O)c1C/C=C(\C)CCC(=O)O)C(=O)OC2` [Mycophenolic acid]: the EC99 was 4.86 ± 0.57 µg/mL, the Selectivity index is reported as over 195.12 and the “reduction in viral load” value was over 2 log.
`NC(=O)c1ncn([C@@H]2O[C@H](CO)[C@@H](O)[C@H]2O)n1` [Ribavirin]: the EC99 was found to be 183.17 ± 11.97 µg/mL, the Selectivity index is listed as over 152.98 and the “reduction in viral load” value is reported as over 2 log.
Turning to B1, the EC50 is 17.64 IU/ml and 17.64 ± 1.09 IU/ml; the EC90 came to 93.31 ± 10.07 IU/ml; the EC99 amounted to 135.70 ± 15.96 IU/ml.

The same data set, now with this note: Middle East respiratory syndrome-related coronavirus, Vero.
Take `COc1c(C)c2c(c(O)c1C/C=C(\C)CCC(=O)O)C(=O)OC2` [Mycophenolic acid]: the EC50 amounted to 0.17 ± 0.03 µg/mL (≈ 0.531 µM) and the EC90 was found to be 2.61 ± 0.34 µg/mL (≈ 8.15 µM).
The molecule `NC(=O)c1ncn([C@@H]2O[C@H](CO)[C@@H](O)[C@H]2O)n1` [Ribavirin] gave an EC50 of 9.99 ± 2.97 µg/mL (≈ 40.9 µM) and an EC90 of 107 ± 11.2 µg/mL (≈ 438 µM).

The data set is the same for the next values; noted with them: at 16 μg/ml.
On to `COc1c(C)c2c(c(O)c1C/C=C(\C)CCC(=O)O)C(=O)OC2` [Mycophenolic acid], for which the “reduction in viral load” value was about 4 log.

For the next data set, the system named is uninfected MDCK cells.
Test: not given
The settings on record: cited from earlier work.
For the molecule `NC(=O)c1ncn([C@@H]2O[C@H](CO)[C@@H](O)[C@H]2O)n1` [Ribavirin], the “concentration inhibiting replication of uninfected MDCK cells” value was at least 10000 ng/mL.

System in a further data set: not given
Test: not given
The following applies: in vivo, iv, 1500 mg; cited from earlier work.
In the case of `COc1c(C)c2c(c(O)c1C/C=C(\C)CCC(=O)OCCN1CCOCC1)C(=O)OC2` [Mycophenolate mofetil], the “average plasma elimination half-life” value is reported as 16.6 h.

Still in this data set, the particulars now being: in vivo, iv; cited from earlier work.
With `NC(=O)c1ncn([C@@H]2O[C@H](CO)[C@@H](O)[C@H]2O)n1` [Ribavirin], the peak concentration result is recorded as “approximately 24 μg/ml”.

Staying with this data set, now noted: in vivo, po, 1000 mg; cited from earlier work.
On to `COc1c(C)c2c(c(O)c1C/C=C(\C)CCC(=O)OCCN1CCOCC1)C(=O)OC2` [Mycophenolate mofetil], for which the “average plasma elimination half-life” value is 17.9 h.

Still in this data set, the particulars now being: in vivo, po; cited from earlier work.
Consider `O=C(O)c1ccccc1Nc1cccc(C(F)(F)F)c1` [Flufenamic acid], for which the Serum concentration was 6–20 [200 mg] μg/ml.
As to `Cc1ccc(Cl)c(Nc2ccccc2C(=O)O)c1Cl` [Meclofenamate sodium], the Serum concentration was 4.8 [100 mg tds] μg/ml.
`Cc1cccc(Nc2ccccc2C(=O)O)c1C` [Mefenamic acid]: the Serum concentration is 10 [1 g] μg/ml.
Turning to `Sc1ncnc2nc[nH]c12` [Mercaptopurine], the Serum concentration was 0.09 [50 mg/m^2] μg/ml.
For the molecule `CCc1nc(N)nc(N)c1-c1ccc(Cl)cc1` [Pyrimethamine], the Serum concentration is 0.55 [1500/75 mg of sulfadoxine/pyrimethamine] μg/ml.
As to `NC(=O)c1ncn([C@@H]2O[C@H](CO)[C@@H](O)[C@H]2O)n1` [Ribavirin], the Serum concentration was 2.2 [4 weeks of 600 mg bd] μg/ml.
As to `Cc1c(Cl)cccc1Nc1ccccc1C(=O)O` [Tolfenamic acid], the Serum concentration is 4.1 [300 mg] μg/ml.

Staying with this data set, now noted: in vivo; cited from earlier work.
B1: the “mean peak serum concentration” value is 40 IU/ml.

A further data set deals with MERS-CoV.
Test: not given
Conditions: not given
It counts as cell-based.
`COc1c(C)c2c(c(O)c1C/C=C(\C)CCC(=O)O)C(=O)OC2` [Mycophenolic acid]: the “anti-MERS-CoV activity at the tested concentrations (in words)” value is given as “showed anti-MERS-CoV activity” and the “concentration at which CPE was completely absent” value was at least 0.063 µg/mL.
Consider `NC(=O)c1ncn([C@@H]2O[C@H](CO)[C@@H](O)[C@H]2O)n1` [Ribavirin], for which the “anti-MERS-CoV activity at the tested concentrations (in words)” value is reported as “showed anti-MERS-CoV activity”.
The same measure, in the same setting: for `Cc1cccc(C)c1OCC(=O)N[C@@H](Cc1ccccc1)[C@@H](O)C[C@H](Cc1ccccc1)NC(=O)[C@H](C(C)C)N1CCCNC1=O` [lopinavir] the value was “suboptimal EC50; also recorded: not found to be active”; for `Cc1c(O)cccc1C(=O)N[C@@H](CSc1ccccc1)[C@H](O)CN1C[C@H]2CCCC[C@H]2C[C@H]1C(=O)NC(C)(C)C` [nelfinavir mesylate hydrate], “suboptimal EC50”.
On the same count and under the same terms, as for B2, the entry is “suboptimal EC50”; as for B1, “showed anti-MERS-CoV activity”.

The next data set deals with MERS-CoV.
Test: not given
Conditions: not given
It counts as cell-based. This is another data set of the same source.
As to `COc1c(C)c2c(c(O)c1C/C=C(\C)CCC(=O)O)C(=O)OC2` [Mycophenolic acid], the “concentration achieving 100% plaque reduction” value is 6.4 µg/mL.
Still for that read-out and setting: for `NC(=O)c1ncn([C@@H]2O[C@H](CO)[C@@H](O)[C@H]2O)n1` [Ribavirin] the value was 400 µg/mL.
Regarding B1, the “maximum percentage of plaque reduction” value turned out to be 66.6% and the plaque reduction is 40–50%.

Another data set concerns Vero cells.
Test: not given
Conditions: not given
For the molecule B1, the CC50 is listed as 3125 IU/ml.

The subject of another data set is influenza A/WSN/1933 (H1N1) virus. The data set can be described thus: microbe, parasite or virus in culture. It counts as cell-based.
Conditions: not given
Turning to `NC12CC3CC(CC(C3)C1)C2` [Amantadine], the “Result of chemical library screening” value is given as “not identified”.
For `CC[C@H]1CN2CCc3cc(OC)c(OC)cc3[C@@H]2C[C@@H]1C[C@H]1NCCc2cc(OC)c(OC)cc21` [Emetine], the “Result of chemical library screening” value was “primary hits with protective results”.
`C[C@]12CC[C@@H]3c4ccc(O)cc4CC[C@H]3[C@@H]1CC[C@@H]2O` [Estradiol]: the “Result of chemical library screening” value is recorded as “primary hits with protective results” and the Selectivity index came to 3.00.
As for `O=C(O)c1ccccc1Nc1cccc(C(F)(F)F)c1` [Flufenamic acid], the “Result of chemical library screening” value is listed as “primary hits with protective results” and the Selectivity index is on record as 12.60.
As to `Cc1ccc(Cl)c(Nc2ccccc2C(=O)O)c1Cl` [Meclofenamate sodium], the “Result of chemical library screening” value is “primary hits with protective results” and the Selectivity index came out at 2.00.
The corresponding values for `Cc1cccc(Nc2ccccc2C(=O)O)c1C` [Mefenamic acid] are “primary hits with protective results” and 4.00.
The corresponding values for `Sc1ncnc2nc[nH]c12` [Mercaptopurine] are “primary hits with protective results” and 4.00.
As for `COc1c(C)c2c(c(O)c1C/C=C(\C)CCC(=O)O)C(=O)OC2` [Mycophenolic acid], the “Result of chemical library screening” value is “primary hits with protective results”.
In the case of `CCc1nc(N)nc(N)c1-c1ccc(Cl)cc1` [Pyrimethamine], the “Result of chemical library screening” value is “primary hits with protective results” and the Selectivity index is 1.80.
The corresponding values for `NC(=O)c1ncn([C@@H]2O[C@H](CO)[C@@H](O)[C@H]2O)n1` [Ribavirin] are “primary hits with protective results” and 8.00.
For the molecule `Cc1c(Cl)cccc1Nc1ccccc1C(=O)O` [Tolfenamic acid], the “Result of chemical library screening” value is recorded as “primary hits with protective results” and the Selectivity index is listed as 8.00.

Still in this data set, the particulars now being: Influenza A virus, H1N1|WSN, MDCK.
As to `CC[C@H]1CN2CCc3cc(OC)c(OC)cc3[C@@H]2C[C@@H]1C[C@H]1NCCc2cc(OC)c(OC)cc21` [Emetine], the EC50 was found to be 14.7 µM.
The same measure, in the same setting: as for `C[C@]12CC[C@@H]3c4ccc(O)cc4CC[C@H]3[C@@H]1CC[C@@H]2O` [Estradiol], the figure is 20 µM.
Consider `O=C(O)c1ccccc1Nc1cccc(C(F)(F)F)c1` [Flufenamic acid], for which the EC50 was 6.3 µM.
Same read-out and setting: as for `Cc1ccc(Cl)c(Nc2ccccc2C(=O)O)c1Cl` [Meclofenamate sodium], the figure is 45 µM; as for `Cc1cccc(Nc2ccccc2C(=O)O)c1C` [Mefenamic acid], 50 µM; as for `Sc1ncnc2nc[nH]c12` [Mercaptopurine], 26.5 µM.
With `CCc1nc(N)nc(N)c1-c1ccc(Cl)cc1` [Pyrimethamine], the EC50 was found to be 3.1 µM.
Still for that read-out and setting: for `NC(=O)c1ncn([C@@H]2O[C@H](CO)[C@@H](O)[C@H]2O)n1` [Ribavirin] the value was 20 µM.
The same measure, in the same setting: as for `Cc1c(Cl)cccc1Nc1ccccc1C(=O)O` [Tolfenamic acid], the figure is 7.94 µM.

In another data set the test system is SARS-CoV.
Test: not given
The following applies: mouse, in vivo; cited from earlier work.
Regarding `COc1c(C)c2c(c(O)c1C/C=C(\C)CCC(=O)O)C(=O)OC2` [Mycophenolic acid], the “efficacy against SARS-CoV in an animal model (in words)” value is “ineffective”.
